Legend:
[1] = tested on: ZIKV; assay: Percentage of ZIKV infection of A549 cells by flow cytometry; format: cell-based, Zika virus; conditions: A549, MOI 5, 10 and 25 µM, 24 h, vs vehicle
Procedure: To confirm the effects of andrographolide and the andrographolide analogues on ZIKV infection, A549 cells were infected with ZIKV at MOI of 5 for 2 h, and subsequently treated with the compounds at concentrations of 10 and 25 μM or with vehicle for 24 h. The cells were harvested for determination of the percentage of infection by flow cytometry, while the supernatants were collected for determination of viral titer by standard plaque assay.
HEK293T/17 or A549 cells were cultured in six-well plates under standard conditions until the cells reached 80% confluence. HEK293T/17 cells were infected with DENV 2, while A549 cells were infected with ZIKV Thai strain at MOI 5 for 2 h at 37 °C and 5% CO2 in culture medium without FBS. Mock infection was undertaken in parallel. After the infection period, the medium was removed and replaced with complete medium (including FBS) containing 0.1% DMSO (no treatment control) or the appropriate concentration of each compound and cells were again incubated under standard conditions. At 24 h post-treatment, cells were harvested for determination of effects of compounds on percentage of infection and supernatant was collected for determination of viral productivity. All experiments were undertaken independently in triplicate with duplicate plaque assay.
Mock- or viral-infected cells (with or without compound treatment) were harvested at an appropriate time point then incubated with 10% normal goat serum (NGS; Gibco Invitrogen) in PBS-immunofluorescence assay (IFA) buffer on ice for 30 min. The cells were washed with 800 µL of 1% BSA/PBS-IFA and fixed with 200 µL of 4% paraformaldehyde in PBS-IFA at room temperature in the dark for 20 min. After washing with 800 µL of 1% BSA/PBS-IFA, cells were permeabilized with 200 µL of 0.2% Triton X-100 in PBS-IFA for 10 min at room temperature in the dark. Subsequently, the cells were washed with 800 µL of 1% BSA/PBS-IFA followed by overnight incubation with 50 µL of primary antibody (1:150 dilution of pan-specific anti-dengue virus E protein antibody HB114 for DENV and 1:2 dilution of anti-flavivirus antibody HB112 for ZIKV). After washing twice with 800 µL of 1% BSA/PBS-IFA, the cells were incubated with 50 µL of a goat anti-mouse IgG conjugated with fluorescein isothiocyanate (FITC; KPL, Guilford, UK) diluted 1:40 with 1% BSA/PBS-IFA at room temperature in the dark for 1 h. The cells were washed twice with 800 µL of 1% BSA/PBS-IFA and resuspended in 100 µL of PBS-IFA. The fluorescence signal was analyzed by flow cytometry on a BD FACalibur cytometer (Becton Dickinson, BD Biosciences, San Jose, CA, USA) using CellQuest™ software (Version 6). All experiments were undertaken independently in triplicate. All raw flow cytometry data plots are provided in Supplementary Figures S13–S19.

[2] = tested on: TKT; assay: 2D-PAGE proteomic analysis of treated A549 cells, TKT spot; format: cell-based, human; conditions: A549, 25 µM, 24 h
Procedure: A549 cells were therefore treated with either vehicle (0.025% DMSO), or with 25 μM of andrographolide or ZAD-1, and at 24 h post-treatment, proteins were prepared and subjected to two-dimension polyacrylamide gel electrophoresis (2D-PAGE). The experiment was undertaken independently in triplicate and representative gels are shown Figure 5, with all replicates being shown in Supplementary Figure S12. […] All of these protein spots were cut from the gels and then subjected to in-gel tryptic digestion followed by mass spectrometry. MASCOT (Matrix Science Inc., Boston, MA, USA) search of the resultant masses identified 4 proteins (Table 3), namely heat shock protein 70 kDa 1A (HSPA1A), phosphoglycerate kinase 1 (PGK1), transketolase (TKT) and nuclear transport protein of GTP-binding nuclear protein Ran (Ran).
2D-PAGE and mass spectroscopic identification of differentially expressed spots was undertaken essentially as previously described. […] Image data were analyzed using Image Master™ 2D Platinum software version 7.0 (GenBio, Geneva, Switzerland). Each spot was evaluated on intensity, volume and area. […] After tryptic in-gel digestion, peptide masses were determined by LC-MS/MS using SYNAPT high definition MS (HDMS) (Waters Corp., Milford, MA, USA).

[3] = tested on: HSPA1A; assay: Western blot of HSPA1A expression in treated A549 cells; format: cell-based, human; conditions: A549, 25 µM, 24 h, normalized to GAPDH
Procedure: (§1) To confirm the 2D-gel analysis results, HSPA1A and PGK1 were selected for the validation by Western blot. The same three experimental conditions were established, namely A549 cells treated with vehicle (0.025% DMSO), 25 μM andrographolide or 25 μM ZAD-1. Glyceraldehyde-3-phosphate dehydrogenase (GAPDH) was used as a loading control and the proteins were normalized to this protein. […] While the difference in HSPA1A expression between andrographolide treatment and ZAD-1 treatment is consistent with the spot intensity data (Table 3), the spot density for the control DMSO treatment is not consistent with the western blot result.
(§2) A total of 40 µg of proteins were separated by electrophoresis through a 12% sodium dodecyl sulfate (SDS) polyacrylamide gel and transferred to a nitrocellulose membrane by electroblotting. The membranes were blocked with 5% skim milk in TBS-T (20 mM Tris, 140 mM NaCl and 0.1% Tween-20) at room temperature for 1 h with shaking. […] The signal of specific protein bands was detected using the Luminata Forte Western HRP Substrate (Millipore Corp., Burlington, MA, USA) and recorded by film autoradiography. […]

[4] = tested on: PGK1; assay: Western blot of PGK1 expression in treated A549 cells; format: cell-based, human; conditions: A549, 25 µM, 24 h, normalized to GAPDH
Procedure: as §1, §2

SMILES | number of ZIKV-infected cells (percentage of infection) [1] | Intensity Level, spot 2 TKT [2] | HSPA1A expression compared with the vehicle control [3] | PGK1 expression relative to the vehicle [4] | PGK1 expression as compared to andrographolide treatment [4]
C=C1CC[C@@H]2[C@](C)(CO)[C@H](O)CC[C@@]2(C)[C@@H]1C/C=C1/C(=O)OC[C@H]1O [Andrographolide] | significantly reduced | 1452.51 | significantly increased | significantly upregulated | –
C=C1CC[C@@H]2[C@]3(C)COC(C)(C)O[C@@H]3CC[C@@]2(C)[C@@H]1C/C=C1/C(=O)OC[C@@H]1Oc1c(Cl)cc(Cl)c2ccc(C)nc12 [ZAD-1] | significantly reduced | 523.514 | no significant difference from control | – | significantly increased expression

Reference: PMC7662321, “Andrographolide and Its 14-Aryloxy Analogues Inhibit Zika and Dengue Virus Infection” (Molecules, 2020)
